Results on twelve molecules are retold here after patent US20230346820A1, “METHODS AND COMPOSITIONS FOR THE TREATMENT OF SARS-COV-2” (priority 2020, published 2023).

For data set [1], the system named is SARS-CoV-2. The data set can be described thus: Checkerboard synergy study with remdesivir (ZIP model, synergyfinder). The class given is cell-based.
Data set [2] has as its system SARS-CoV-2.
A short description of a further data set: in vitro. The settings on record: human.
For data set [3] the following is noted: human, oral; cited from earlier work.
In data set [4] the test system is SARS-CoV-2. Put plainly: microbe, parasite or virus in culture.
The subject of data set [5] is HeLa-ACE2 cells.
Data set [6] relates to SARS-CoV-2. The settings on record: for Calu3 SI CC50/CoV-2 EC50 / EC50: Table 4; for EC50: read-out: Calu-3 CoV-2 EC50, aggregated data, Geomean, n = 3, 48 h.
For the next data set, the system named is Calu-3 cells. The settings on record: read-out: Calu-3 Uninfected Tox CC50; Table 4; aggregated data, Geomean, n = 3.
Data set [7] relates to HeLa-ACE2 cells. The data set can be described thus: cells. The class given is cell-based, human. The settings on record: read-out: HeLa-ACE-2 EC50 [μM] (Geomeans, n ≥ 2).
[8] abbreviates: CC50 [μM] (Geomeans, n ≥ 2 except where indicated: *n = 1).
The mark [9] stands for this setting: Severe acute respiratory syndrome coronavirus 2, HeLa-ACE2, 24 h, read-out: CoV-2 EC50 [μM] (Geomeans, n ≥ 2).
[10] abbreviates: Severe acute respiratory syndrome coronavirus 2, HeLa-ACE2, read-out: SARS CoV-2 EC50 (μM).
[11] abbreviates: read-out: HeLa-ACE2 CoV-2 EC50, Table 4, aggregated data, Geomean, n = 3.
Setting [12] is: read-out: HeLa-ACE2 Uninfected Tox CC50, Table 4, aggregated data, Geomean, n = 3.
The mark [13] stands for this setting: Table 1, ZIP model, δ>10 synergy, δ<−10 antagonism, between additive.

Molecules are shown by their SMILES. Where a name gives a salt, the structure may show the parent alone. Read-outs that look alike come from different tables or passages of the source. A value given as a limit tells only on which side of the number the result lay.

One may read the Cmax as the peak of the concentration-time curve. The EC50 is the concentration at which the effect is half-maximal.

With `Nc1nc(Nc2ccc3c(c2)CC[C@@H](N2CCCC2)CC3)nn1-c1cc2c(nn1)-c1ccccc1CCC2` [BGB324/R-428], the “Synergy score with remdesivir (δ)” value with SARS-CoV-2 [1] (Table 3) worked out at 7.223. Also, the “HeLa-ACE2 CC50/CoV-2 EC50” value in the data set on SARS-CoV-2 [2] came to 13.05. Also, the CC50 in “in vitro” (setting [8]) is 15.7 µM. Further, in data set [3], the Cmax is around 750 nM and the t1/2 was ~80 h (oral, humans)(30). In the data set on SARS-CoV-2 [4] (setting [9]), the EC50 is 1.2 µM. The 50% effective concentration (EC50) in the data set on SARS-CoV-2 [4] (setting [10]) was found to be 1.2 µM.

In the case of `Nc1nccc2c1ncn2C1C=C(CO)C(O)C1O` (stereo not shown) [DEAZANEPLANOCINA], the values for the concentration for a half-maximal effect (EC50) in the data set on SARS-CoV-2 [2] (setting [11]) and with SARS-CoV-2 [6] were above 9.59 µM and 57 nM, respectively. The CC50 in the data set on HeLa-ACE2 cells [5] (setting [12]) came to 7.95 µM; with Calu-3 cells, 10.3 µM. Further, the “Calu3 SI CC50/CoV-2 EC50” value with SARS-CoV-2 [6] turned out to be 182.24.

Turning to `CCc1ccc2c(c1)N(CC(C)CN(C)C)c1ccccc1S2` (stereo not shown) [Ethylisobutrazine Hydrochloride], in the data set on SARS-CoV-2 [2], the “HeLa-ACE2 CC50/CoV-2 EC50” value is reported as 10.48. In the data set with HeLa-ACE2 cells [5] (human), this molecule yielded a CC50 of 20.9 µM. Moreover, the EC50 with SARS-CoV-2 [4] (setting [9]) is 2 µM.

With `Oc1ccc(Nc2ccnc3cc(Cl)ccc23)cc1CN1CCCC1` [AMOPYROQUINE], the “HeLa-ACE2 CC50/CoV-2 EC50” value with SARS-CoV-2 [2] turned out to be 19.02. In addition, in the data set with HeLa-ACE2 cells [5] (human), the CC50 came out at 17.2 µM. Further, the EC50 with SARS-CoV-2 [4] (setting [9]) stood at 0.904 µM.

Take `C=CC(=O)Nc1cc(Nc2nccc(-c3cn(C)c4ccccc34)n2)c(OC)cc1N(C)CCN(C)C` [Osimertinib]: the “Synergy score with remdesivir (δ)” value in the data set with SARS-CoV-2 [1] (setting [13]) and in the data set on SARS-CoV-2 [1] (Table 3) was −0.722 throughout. Also, the “HeLa-ACE2 CC50/CoV-2 EC50” value in the data set on SARS-CoV-2 [2] was above 18.79. The CC50 in “in vitro” (setting [8]) and in the data set “in vitro” (Uninfected HeLa-ACE2 CC50 (μM)) was above 18.1 µM throughout. In addition, in [3], the maximum concentration (Cmax) is around 1500 nM. For the same molecule, in data set [3], the t1/2 is given as ~42 h (human, oral)(33, 34). Also, the half-maximal effective concentration (EC50) in the data set on SARS-CoV-2 [4] (setting [9]) and with SARS-CoV-2 [4] (setting [10]) was 0.962 µM each time.

In the case of `CC(C)Oc1ccc(-c2nc(-c3cccc4c3CC[C@@H]4NCCO)no2)cc1C#N` [Ozanimod], in the data set with SARS-CoV-2 [1] (Table 3), the “Synergy score with remdesivir (δ)” value is recorded as −4.62. Further, in the data set with SARS-CoV-2 [2], the “HeLa-ACE2 CC50/CoV-2 EC50” value is listed as above 5.60. The CC50 in “in vitro” (setting [8]) and in “in vitro” (Uninfected HeLa-ACE2 CC50 (μM)) was above 14.7 µM each time. Moreover, the highest concentration (Cmax) in [3] is around 1200 nM. Besides, the t1/2 in data set [3] is listed as ~21 h (human, oral)(24). The EC50 in the data set with SARS-CoV-2 [4] (setting [9]) and in the data set with SARS-CoV-2 [4] (setting [10]) was 2.63 µM each time.

On to `CC(C)(C)Cn1c(N)nc2ccc(-c3[nH]c(C(C)(C)C)nc3-c3ccc(F)cc3)nc21` [Ralimetinib mesylate/LY2228820, Ralimetinib mesylate], for which the “Synergy score with remdesivir (δ)” value in the data set on SARS-CoV-2 [1] (setting [13]) was −0.846. For the same molecule, the “Synergy score with remdesivir (δ)” value in the data set with SARS-CoV-2 [1] (Table 3) is −0.846. Moreover, in the data set with SARS-CoV-2 [2], the “HeLa-ACE2 CC50/CoV-2 EC50” value is on record as 14.6 and the “activity in HeLa-ACE2 infection assay” value is “active”. In addition, the “activity in Calu-3 infection assay” value in the data set with SARS-CoV-2 [6] is listed as “active”. The molecule also came in with a CC50 in “in vitro” (setting [8]) of 27.4 µM. Further, in data set [3], the Cmax is around 5000 nM and the t1/2 is ~145 h (human, oral)(28). For the same molecule, in the data set on SARS-CoV-2 [4] (setting [9]), the EC50 worked out at 1.87 µM.

With `Cc1nc2c(s1)C(=O)C=C(NCCN(C)C)C2=O` [BN-82685], in the data set on SARS-CoV-2 [2] (Table 4), the “HeLa-ACE2 SI CC50/CoV-2 EC50” value is on record as 3.04. In addition, the half-maximal effective concentration (EC50) stood at 1.53 µM in the data set on SARS-CoV-2 [2] (setting [11]) and 3050 nM in the data set with SARS-CoV-2 [6]. Further, the CC50 in the data set on HeLa-ACE2 cells [5] (setting [12]) worked out at 4.66 µM; in the data set with Calu-3 cells, 5.96 µM. The “Calu3 SI CC50/CoV-2 EC50” value in the data set with SARS-CoV-2 [6] turned out to be 5.69.

Take `CCCCN(CCCC)CCC(O)c1cc2c(Cl)cc(Cl)cc2c2cc(C(F)(F)F)ccc12` (stereo not shown) [Halofantrine HCl]: the “Synergy score with remdesivir (δ)” value in the data set on SARS-CoV-2 [1] (Table 3) is reported as −3.509. Besides, the “HeLa-ACE2 CC50/CoV-2 EC50” value with SARS-CoV-2 [2] was above 20.66. Besides, the CC50 in the data set “in vitro” (setting [8]) and in the data set “in vitro” (Uninfected HeLa-ACE2 CC50 (μM)) was above 23.9 µM in each case. Moreover, the Cmax in data set [3] was around 1000 nM. The t1/2 in data set [3] is reported as ~72 h (human oral)(16, 17). Also, the EC50 with SARS-CoV-2 [4] (setting [9]) and in the data set on SARS-CoV-2 [4] (setting [10]) was 1.16 µM in each case.

In the case of `CN(C)CCOc1ccc2c(=O)c3ccc(OCCN(C)C)cc3oc2c1` [TILORINE DIHYDROCHLORIDE], the “HeLa-ACE2 CC50/CoV-2 EC50” value in the data set with SARS-CoV-2 [2] was 11.07. Besides, the CC50 in the data set with HeLa-ACE2 cells [5] (human) is 9.79 µM. Moreover, in the data set on SARS-CoV-2 [4] (setting [9]), the 50% effective concentration (EC50) is 0.884 µM.

Take `COC(=O)C1=C(C)NC(C)=C(C(=O)OCCN2CCN(C(c3ccccc3)c3ccccc3)CC2)C1c1cccc([N+](=O)[O-])c1` (stereo not shown) [manidipine]: the “Synergy score with remdesivir (δ)” value in the data set with SARS-CoV-2 [1] (setting [13]) and in the data set on SARS-CoV-2 [1] (Table 3) was −4.727 in each case. The “HeLa-ACE2 CC50/CoV-2 EC50” value with SARS-CoV-2 [2] is recorded as above 2.48. Further, the CC50 in the data set “in vitro” (setting [8]) and in the data set “in vitro” (Uninfected HeLa-ACE2 CC50 (μM)) was above 17.1 µM in each case. Moreover, the Cmax in [3] was around 10 nM. Besides, in [3], the t1/2 is on record as ~3 h (human, oral)(23). Also, the EC50 in the data set on SARS-CoV-2 [4] (setting [9]) and in the data set with SARS-CoV-2 [4] (setting [10]) was above 6.89 µM each time.

As for `NC1(c2ccc(-c3nc4ccn5c(=O)[nH]nc5c4cc3-c3ccccc3)cc2)CCC1` [MK-2206], the concentration giving a half-maximal response (EC50) was above 9.59 µM in the data set with HeLa-ACE2 cells [7]; 1.1 µM in the data set on SARS-CoV-2 [2] (read-out: CoV-2 EC50 [μM] (Geomeans, n ≥ 2)); 1.1 µM in the data set on SARS-CoV-2 [2] (read-out: SARS CoV-2 EC50). Further, the “Synergy score with remdesivir (δ)” value with SARS-CoV-2 [1] (setting [13]) and in the data set on SARS-CoV-2 [1] (Table 3) was 2.087 in each case. Moreover, the “HeLa-ACE2 CC50/CoV-2 EC50” value in the data set with SARS-CoV-2 [2] is recorded as above 20.63. The molecule further gave a CC50 with HeLa-ACE2 cells [5] above 22.8 µM. The Cmax in [3] is around 571 nM. In addition, the t1/2 in data set [3] is ~75 h (human, oral)(29).
